The values that follow come from ChEMBL document CHEMBL4765436, “Discovery, structure-activity relationship study and biological evaluation of 2-thioureidothiophene-3-carboxylates as a novel class of C-X-C chemokine receptor 2 (CXCR2) antagonists” (Eur J Med Chem, 2020).

pIC50: −log10 of the molar value.

As a reminder, the pIC50 is the negative decadic logarithm of the IC50, by convention in mol/L.

The target of test [1] is T1, C-X-C chemokine receptor type 2 (Homo sapiens, UniProt P25025).
T1 sequence (P25025 whole entry): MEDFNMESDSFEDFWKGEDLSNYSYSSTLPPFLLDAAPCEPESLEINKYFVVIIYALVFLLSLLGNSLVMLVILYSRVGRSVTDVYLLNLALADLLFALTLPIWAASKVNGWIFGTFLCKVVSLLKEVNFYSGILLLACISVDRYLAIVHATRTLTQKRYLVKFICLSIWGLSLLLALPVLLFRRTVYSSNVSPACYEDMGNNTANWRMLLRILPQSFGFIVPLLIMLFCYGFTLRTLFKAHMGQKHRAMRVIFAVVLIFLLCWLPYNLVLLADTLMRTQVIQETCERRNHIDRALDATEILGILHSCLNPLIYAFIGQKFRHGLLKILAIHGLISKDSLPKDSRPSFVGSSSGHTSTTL
Briefly: Antagonist activity at CXCR2 (unknown origin) expressed in U2OS cells cotransfected with beta-arrestin/TEV protease fusion protein and beta-lactamase assessed as inhibition of CXCL8-induced beta arrestin2 recruitment preincubated for 30 mins followed by CXCL8 stimulation and measured after 5 hrs by FRET based fluorescence/Tango assay. The format is cell-based. Background: Activated receptors often draw arrestin, which recruitment assays turn into a signal.

The target of test [2] is C-X-C chemokine receptor type 4 (Homo sapiens, UniProt P61073). Briefly: Antagonist activity at CXCR4 (unknown origin) expressed in U2OS cells cotransfected with beta-arrestin/TEV protease fusion protein and beta-lactamase assessed as inhibition of SDF1-alpha-induced beta arrestin2 recruitment preincubated for 30 mins followed by SDF1-alpha stimulation and measured after 5 hrs by FRET based fluorescence/Tango assay.
C-X-C chemokine receptor type 4, sequence (P61073 whole entry, the tested form may be a part): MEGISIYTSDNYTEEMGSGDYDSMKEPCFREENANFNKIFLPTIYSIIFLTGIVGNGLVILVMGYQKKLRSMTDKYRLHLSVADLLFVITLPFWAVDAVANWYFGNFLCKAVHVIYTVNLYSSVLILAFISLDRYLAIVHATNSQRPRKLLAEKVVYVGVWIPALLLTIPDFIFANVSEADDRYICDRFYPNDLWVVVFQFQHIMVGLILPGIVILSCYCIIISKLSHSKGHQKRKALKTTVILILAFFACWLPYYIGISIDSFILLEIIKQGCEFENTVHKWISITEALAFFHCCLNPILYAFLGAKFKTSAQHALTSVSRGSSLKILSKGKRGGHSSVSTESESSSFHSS

In the case of `COc1ccc(NC(=S)Nc2sc3c(c2C(=O)OC(C)(C)C)C(C)CCC3)cc1OC` (stereo unspecified), the pIC50 is 5.24 in test [1] and below 5.00 in test [2].
In the same order, the values of `CCOC(=O)c1c(NC(=S)Nc2ccc(O)cc2)sc2c1C(C)CCC2` (stereo unspecified) are below 4.52 and 4.93.
For `CC1CCCc2sc(NC(=S)Nc3ccc(Oc4ccccc4)cc3)c(C(=O)OC(C)(C)C)c21` (stereo unspecified), the pIC50 in test [1] and in test [2] was below 5.00 throughout.
Take `CC(C)OC(=O)c1c(NC(=S)Nc2ccccc2)sc2c1C(C)CCC2` (stereo unspecified): the pIC50 was 5.57 in test [1] and 5.03 in test [2].
In the case of `CCOC(=O)c1c(NC(=S)Nc2ccc(C(F)(F)F)cc2)sc2c1C(C)CCC2` (stereo unspecified), the pIC50 in test [1] was 5.70; in test [2], 4.84.
Regarding `COc1ccc(NC(=S)Nc2sc3c(c2C(=O)OC(C)(C)C)CCOC3)cc1OC`, the negative logarithm of the IC50 (pIC50) in test [1] was 5.47; in test [2], below 5.00.
For `CC1CCCc2sc(NC(=S)Nc3ccc4c(c3)OC(F)(F)O4)c(C(=O)OC(C)(C)C)c21` (stereo unspecified) the same measures were below 5.00 and below 5.00.
In the same order, the values of `CCOC(=O)NC(=S)Nc1sc2c(c1C(=O)OCC)C(C)CCC2` (stereo unspecified) are 5.06 and below 5.00.
In the same order, the values of `COc1cccc(NC(=S)Nc2sc3c(c2C(=O)OC(C)(C)C)C(C)CCC3)c1` (stereo unspecified) are 5.57 and below 5.00.
On to `CC(C)(C)OC(=O)c1c(NC(=S)Nc2ccc(OC(F)(F)F)cc2)sc2c1CCOC2`, for which the pIC50 in test [1] was 5.80; in test [2], below 4.52.
For `CCOC(=O)c1c(NC(=S)Nc2ccccc2O)sc2c1C(C)CCC2` (stereo unspecified) the same measures were below 4.52 and below 5.00.
As to `CC1CCCc2sc(NC(=S)Nc3ccccc3)c(C(=O)NCc3ccccc3)c21` (stereo unspecified), the values for the negative logarithm of the IC50 (pIC50) in test [1] and in test [2] were 5.60 and below 4.52, respectively.
In the same order, the values of `O=C(Nc1ccccc1)c1c(NC(=S)Nc2ccc(F)cc2)sc2c1CCOC2` are below 5.00 and below 5.00.
In the same order, the values of `CCOC(=O)c1c(NC(=S)NCc2ccccc2)sc2c1C(C)CCC2` (stereo unspecified) are 5.17 and below 4.70.
For `CN1CCc2c(sc(NC(=S)Nc3ccccc3)c2C(=O)OC(C)(C)C)C1` the same measures were below 5.00 and below 5.00.
`CCOC(=O)c1c(NC(=S)Nc2cccc(OC)c2)sc2c1C(C)CCC2` (stereo unspecified): the figures for the negative logarithm of the IC50 (pIC50) in test [1] and in test [2] were 5.52 and 5.05, respectively.
For `CCOC(=O)c1c(NC(=S)Nc2ccc(OC)cc2)sc2c1C(C)CCC2` (stereo unspecified) the same measures were 5.36 and 4.94.
For `CCOC(=O)c1c(NC(=S)Nc2ccc(C(C)(C)C)cc2)sc2c1C(C)CCC2` (stereo unspecified) the same measures were 5.15 and below 5.00.
For the compound `CC1CCCc2sc(NC(=S)Nc3ccccc3)c(C(=O)Nc3ccccc3)c21` (stereo unspecified), the figures for the negative logarithm of the IC50 (pIC50) in test [1] and in test [2] were 5.57 and below 5.00, respectively.
For `CC1CCCc2sc(NC(=S)Nc3ccc(OC(F)(F)F)cc3)c(C(=O)OC(C)(C)C)c21` (stereo unspecified) the same measures were 4.97 and below 5.00.
In the same order, the values of `CC1CCCc2sc(NC(=S)Nc3ccccc3)c(C(=O)O)c21` (stereo unspecified) are 5.17 and below 5.00.
For `CC(C)(C)OC(=O)c1c(NC(=S)Nc2ccccc2)sc2c1COC(C)(C)C2` the same measures were below 5.00 and below 5.00.
Consider `CCOC(=O)c1c(NC(=S)Nc2cnccn2)sc2c1C(C)CCC2` (stereo unspecified), for which the negative logarithm of the IC50 (pIC50) in test [1] and in test [2] was below 5.00 throughout.
With `CNC(=O)c1c(NC(=S)Nc2ccccc2)sc2c1C(C)CCC2` (stereo unspecified), the negative-log IC50 (pIC50) in test [1] and in test [2] was below 5.00 throughout.
In the case of `CCOC(=O)c1c(NC(=S)Nc2ccc(N)cc2)sc2c1C(C)CCC2` (stereo unspecified), the negative logarithm of the IC50 (pIC50) in test [1] is below 4.52; in test [2], below 5.00.
As for `CCOC(=O)c1c(NC(=S)Nc2ccccc2F)sc2c1C(C)CCC2` (stereo unspecified), the negative-log IC50 (pIC50) in test [1] is 5.12; in test [2], 4.92.
For `CC(C)(C)OC(=O)c1c(NC(=S)Nc2ccccc2)sc2c1CCCO2`, the pIC50 in test [1] was 5.39; in test [2], below 5.00.
In the same order, the values of `CC1CCCc2sc(NC(=S)Nc3ccc(OC(C)(C)C)cc3)c(C(=O)OC(C)(C)C)c21` (stereo unspecified) are 5.17 and below 5.00.
Turning to `CCOC(=O)c1c(NC(=S)Nc2ccccc2)sc2c1C(C)CCC2` (stereo unspecified), the pIC50 in test [1] was 5.19; in test [2] it was below 5.00.
In the same order, the values of `CCOC(=O)c1c(NC(=S)Nc2ccc(N(C)C)cc2)sc2c1C(C)CCC2` (stereo unspecified) are 5.41 and below 5.00.
In the same order, the values of `CCOC(=O)c1c(NC(=S)NC(=O)c2ccccc2)sc2c1C(C)CCC2` (stereo unspecified) are below 5.00 and below 5.00.
For `CC1CCCc2sc(NC(=S)Nc3ccc(N4CCN(C)CC4)cc3)c(C(=O)OC(C)(C)C)c21` (stereo unspecified) the same measures were below 5.00 and below 5.00.
For `CC(C)(C)OC(=O)c1c(NC(=S)Nc2ccccc2)sc2c1CCOC2`, the negative logarithm of the IC50 (pIC50) in test [1] is 5.64; in test [2], below 4.52.
Turning to `CCOC(=O)c1c(NC(=S)Nc2ccc(OC)c(OC)c2)sc2c1C(C)CCC2` (stereo unspecified), the pIC50 was 5.11 in test [1] and below 5.00 in test [2].
In the same order, the values of `CCOC(=O)c1c(NC(=S)Nc2ccc3c(c2)OC(F)(F)O3)sc2c1C(C)CCC2` (stereo unspecified) are 5.72 and 4.57.
In the same order, the values of `CCOC(=O)c1c(NC(=S)Nc2ccc(OC(F)(F)F)cc2)sc2c1C(C)CCC2` (stereo unspecified) are 5.66 and 4.90.
In the same order, the values of `C[C@H](NC(=S)Nc1sc2c(c1C(=O)OC(C)(C)C)CCOC2)c1ccccc1` are 5.62 and below 4.52.
As to `CC(C)(C)OC(=O)c1c(NC(=S)Nc2ccccc2)sc2c1CCCC2`, the values for the negative logarithm of the IC50 (pIC50) in test [1] and in test [2] were 5.74 and below 5.00, respectively.
In the same order, the values of `CCOC(=O)c1c(NC(=S)Nc2ccc(F)cc2)sc2c1C(C)CCC2` (stereo unspecified) are 5.68 and 4.93.
In the same order, the values of `CC1CCCc2sc(NC(=S)Nc3ccccc3)c(C(N)=O)c21` (stereo unspecified) are below 4.52 and below 5.00.
For `CC(C)(C)OC(=O)c1c(NC(=S)Nc2ccccc2)sc2c1CCN(Cc1ccccc1)C2` the same measures were below 5.00 and below 5.00.
`CC(C)(C)OC(=O)c1c(NC(=S)Nc2ccccc2)sc2c1CCNC2`: the pIC50 in test [1] was 5.06; in test [2], below 5.00.
For `CC1CCCc2sc(NC(=S)Nc3ccccc3)c(C(=O)OC(C)(C)C)c21` (stereo unspecified) the same measures were 5.60 and 4.92.
